From patent US20250345447A1, “PHARMACEUTICAL COMPOSITION OF RECOMBINANT ANTI-HUMAN CLDN18.2 MONOCLONAL ANTIBODY-MMAE CONJUGATE” (CSPC MEGALITH BIOPHARMACEUTICAL CO., LTD., priority 2022, published 2025)
One block for each molecule: values may come before it.

Tests used:
[1] = test system: human pancreatic cancer Bxpc3-18.2; assay: Bxpc3-18.2 nude mouse xenograft tumor model, gemcitabine as control; assay type: in vivo
Method: When the tumor grew to a volume of about 100 mm^3 (day 39 after inoculation), 48 animals with good tumor growth were selected and equally divided into 6 groups (day 0) according to the tumor volume, with 8 animals in each group. […] The tumor diameters were measured twice a week, the mice were weighed, and the data were recorded. The tumor growth was dynamically observed by measuring the tumor diameters at different times after administration. The experiment was ended on day 28, the mice were asphyxiated with carbon dioxide, and then the tumors were stripped off and weighed.

[2] = test system: human gastric cancer NUGC-4-18.2; assay: NUGC-4-18.2 nude mouse xenograft tumor model, cisplatin as control; conditions: 6 mg/kg i.v. qw×3, day 20
Method: 2) In this experiment, human gastric cancer NUGC-4-18.2 was selected to construct a nude mouse xenograft tumor model. When the tumor grew to a volume of about 120 mm^3 (day 6 after inoculation), 64 animals with good tumor growth were selected and equally divided into 8 groups (day 0) according to the tumor volume, with 8 animals in each group. […] The tumor diameters were measured twice a week, the mice were weighed, and the data were recorded. The change in the tumor growth was dynamically observed by measuring the tumor diameters at different times after administration. The experiment was ended on day 20, the animals were asphyxiated with carbon dioxide, and then the tumors were stripped off and weighed.

[3] = biological target: mouse CLDN18.2 (mouse) (UniProt P56857); assay: flow cytometry on HEK293-mouse CLDN18.2 cells, four-parameter fit; given as ED50
[4] = biological target: T1, cynomolgus monkey CLDN18.2 (cynomolgus monkey, UniProt A0A2K5VVB4 1-261); assay: flow cytometry on CHO-K1-cynomolgus monkey CLDN18.2 cells, four-parameter fit; given as ED50
T1 chain: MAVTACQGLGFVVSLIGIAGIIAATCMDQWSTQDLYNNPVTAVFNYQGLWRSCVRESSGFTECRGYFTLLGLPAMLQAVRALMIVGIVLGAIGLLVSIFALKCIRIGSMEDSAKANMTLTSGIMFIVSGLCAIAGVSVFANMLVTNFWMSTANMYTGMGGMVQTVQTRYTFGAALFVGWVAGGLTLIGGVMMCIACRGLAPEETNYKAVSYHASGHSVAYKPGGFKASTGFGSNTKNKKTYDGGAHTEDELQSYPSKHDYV

[5] = biological target: human CLDN18.2 (human) (UniProt P56856); assay: flow cytometry on HEK293-human CLDN18.2 cells, four-parameter fit; given as ED50

Molecule: Nc1ccn([C@@H]2O[C@H](CO)[C@@H](O)C2(F)F)c(=O)n1 [Gemcitabine, gemcitabine, reference compound]
tumor weight inhibition rate ([1]; 50 mg/kg i.v. biw×4, day 28): 51.0%
tumor growth compared with the solvent control group ([1]; SYJS001-ADC 2, 4 and 8 mg/kg single, GEM 50 mg/kg biw×4, P<0.01): significantly inhibited

Molecule: N.N.[Cl][Pt][Cl] [cisplatin, reference compound]
tumor weight inhibition rate [2]: 66.5%

EC50 [3]: 0.717 µg/mL
EC50 [4]: 0.648 µg/mL
EC50 [5]: 0.439 µg/mL
B1: SYJS001-ADC (recombinant anti-human CLDN18.2 monoclonal antibody-MMAE conjugate) (antibody, human IgG1, kappa, V domains shown)
VH: EVQLSESGGALVQPGESLRLSCAASGFTFSSYAMTWVRQAPGKGLEWVSSLSGSGRSTYYAASIKGRFTISRDNSKNTLYLQMSSLRAEDTAIYYCAKSLSYYHYYFDYWGQGTLVTVSS
VL: DIQLTQSPSFLSASVGDRVPITCRASQDISNYLAWYQQKPGKAPKLLIYSASTLQSGVPSRFSGSGSGTEFTLTISSLQPEDFASYHCQQVKTYPLTFGGGTKVEIKR
modifications: one molecule of MMAE conjugated via the linker NH2-PEG3-Val-Cit (LND1002) by an amide (isopeptide) bond to Q298 (i.e., Q295 according to Kabat numbering) of each heavy chain; mean DAR 2.0
notes: also called anti-CLDN18.2 antibody-drug conjugate SYJS001-ADC
